Data from US20130196984A1, “3-AMINO-5-PHENYL-56-DIHYDRO-2H-[1,4]OXAZINES” (Siena Biotech S.p.A., priority 2009, published 2013).
pIC50, pKd: −log10 of the molar value.

Legend:
BACE1 [1] = biological target: T1, BACE1 (Homo sapiens, UniProt P56817); assay: Assay A: binding studies using SPR based methods, immobilised BACE1; set-up: 6his-tagged full length BACE 1 expressed in SF9 cells; 6His; made in house; host or cells: SF9 insect cells; details: CM5 chip, immobilised 6his-tagged full length BACE 1, acetate buffer pH 4.6, 4% DMSO;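 further: KD from a 1:1 kinetic fit (koff/kon) of real-time association and dissociation curves, or for fast binders from end-of-association equilibrium responses plotted against log concentration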
T1 sequence (P56817 46-501): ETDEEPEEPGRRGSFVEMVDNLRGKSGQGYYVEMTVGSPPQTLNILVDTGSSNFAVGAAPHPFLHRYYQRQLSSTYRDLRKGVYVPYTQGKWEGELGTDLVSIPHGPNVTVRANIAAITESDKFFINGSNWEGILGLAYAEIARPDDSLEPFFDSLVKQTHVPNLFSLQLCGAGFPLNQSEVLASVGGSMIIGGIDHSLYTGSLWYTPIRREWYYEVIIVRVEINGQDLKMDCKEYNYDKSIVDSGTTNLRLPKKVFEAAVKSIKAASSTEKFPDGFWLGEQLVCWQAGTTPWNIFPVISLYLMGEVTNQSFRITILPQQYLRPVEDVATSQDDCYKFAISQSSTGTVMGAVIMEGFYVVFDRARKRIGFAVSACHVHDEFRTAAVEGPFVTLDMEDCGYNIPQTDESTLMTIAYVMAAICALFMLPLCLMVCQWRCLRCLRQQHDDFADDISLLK

BACE2 [2] = biological target: T2, BACE2 (Homo sapiens, UniProt Q9Y5Z0); assay: Assay A: binding studies using SPR based methods, immobilised BACE2; details: CM5 chip, immobilised BACE2 enzyme ectodomain, acetate buffer pH 4.6, 4% DMSO
T2 construct: BACE2 enzyme ectodomain (derived from plasmid “pET17b-T7-hu proBACE2”); T7 (N); made in house
T2 sequence (Q9Y5Z0 63-473 limits assumed): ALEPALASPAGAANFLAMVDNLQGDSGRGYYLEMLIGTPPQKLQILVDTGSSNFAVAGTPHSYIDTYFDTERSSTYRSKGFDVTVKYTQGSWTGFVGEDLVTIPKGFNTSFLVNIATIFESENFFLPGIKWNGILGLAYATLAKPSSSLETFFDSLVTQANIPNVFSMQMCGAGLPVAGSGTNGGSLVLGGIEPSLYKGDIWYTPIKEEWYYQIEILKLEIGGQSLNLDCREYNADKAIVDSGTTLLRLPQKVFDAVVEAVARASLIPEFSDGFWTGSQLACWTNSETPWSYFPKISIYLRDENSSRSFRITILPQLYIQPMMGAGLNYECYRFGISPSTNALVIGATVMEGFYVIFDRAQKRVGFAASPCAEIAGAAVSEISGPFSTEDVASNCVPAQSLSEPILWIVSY

BACE1 [3] = biological target: T1, BACE1; assay: Cellular Abeta-lowering assay; assay type: cell-based; set-up: endogenous in cells; host or cells: HEK293 stably transfected with human APP695 wt; details: HEK293 cells stably transfected with human APP wt (APP695), Aβ40 ELISA of supernatant after 18-20 hrs
BACE2 [4] = biological target: T3, BACE2 (Rattus norvegicus, UniProt Q6IE75); assay: Assay for BACE inhibition by measuring cellular TMEM27 cleavage; assay type: cell-based; details: INS-TMEM27 (INS1e-derived) cells, ELISA of shed human TMEM27 in supernatant;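 further: inhibitor added 2 h before doxycycline-induced hTMEM27 expression, supernatant collected after further 46 h, endogenous BACE2 activity read as reduced TMEM27 shedding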
T3 construct: endogenous cellular BACE2 in the Ins1e rat cell line; endogenous in cells; host or cells: INS-TMEM27 (INS1e-derived rat cell line with doxycycline-inducible full-length hTMEM27)
T3 sequence (Q6IE75 63-514): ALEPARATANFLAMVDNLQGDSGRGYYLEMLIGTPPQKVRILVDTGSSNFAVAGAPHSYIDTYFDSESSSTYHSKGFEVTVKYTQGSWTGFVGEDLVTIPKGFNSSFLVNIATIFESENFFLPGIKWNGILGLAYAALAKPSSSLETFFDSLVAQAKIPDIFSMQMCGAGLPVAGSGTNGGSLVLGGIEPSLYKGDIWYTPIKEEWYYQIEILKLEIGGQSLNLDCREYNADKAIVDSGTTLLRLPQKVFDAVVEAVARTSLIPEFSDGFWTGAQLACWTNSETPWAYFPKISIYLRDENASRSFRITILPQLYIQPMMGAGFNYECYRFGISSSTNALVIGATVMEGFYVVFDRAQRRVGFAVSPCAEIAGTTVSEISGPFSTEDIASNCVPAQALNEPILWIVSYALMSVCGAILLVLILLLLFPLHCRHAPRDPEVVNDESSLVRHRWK

| SMILES | pKd (BACE1 [1]) | pKd (BACE2 [2]) | pIC50 (BACE1 [3]) | pIC50 (BACE2 [4]) |
| --- | --- | --- | --- | --- |
| C[C@@]1(c2cc(NC(=O)c3ncccc3OCC(F)(F)F)ccc2F)COCC(N)=N1 [Example 48, 3-(2,2,2-trifluoro-ethoxy)-pyridine-2-carboxylic acid [3-((R)-5-amino-3-methyl-3,6-dihydro-2H-[1,4]oxazin-3-yl)-4-fluoro-phenyl]-amide] | 5.92 | 6.94 | 6.46 | 7.28 |
| C[C@@]1(c2cc(NC(=O)c3ncc(C(F)(F)F)cc3Cl)ccc2F)COCC(N)=N1 [Example 38, 3-chloro-5-trifluoromethyl-pyridine-2-carboxylic acid [3-((R)-5-amino-3-methyl-3,6-dihydro-2H-[1,4]oxazin-3-yl)-4-fluoro-phenyl]-amide] | 7.41 | 7.49 | 7.68 | 7.36 |
| C[C@@]1(c2cc(NC(=O)c3ccc(Cl)cn3)ccc2F)CO[C@H](Cc2ccccc2)C(N)=N1 [Example 28, 5-Chloro-pyridine-2-carboxylic acid [3-((3R,6R)— and (3S,6)-5-amino-6-benzyl-3-methyl-3,6-dihydro-2H-[1,4]oxazin-3-yl)-4-fluoro-phenyl]-amide] | 7.15 | 7.96 | 7.72 | 7.24 |
| Cc1cc(C(=O)Nc2cccc(C3(C)COCC(N)=N3)c2)c(C)o1 (racemic) [Example 13, (RS)-2,5-dimethylfuran-3-carboxylic acid [3-(5-amino-3-methyl-3,6-dihydro-2H-[1,4]oxazin-3-yl)-phenyl]-amide] | 6.35 | 7.48 | 7.62 | 7.29 |
